Data published in US20250304596A1, “PYRAZINE DERIVATIVES AND USES THEREOF” (FOGHORN THERAPEUTICS INC., priority 2022, published 2025).

How the values were obtained:
HiBit-BRM fusion protein = target: T1, HiBit-BRM fusion protein (Homo sapiens, UniProt P51531); assay: HiBiT-BRM cell-based degradation assay (Nano-Glo HiBiT Lytic Detection, 24 h); details: stable HeLa cell line expressing HiBiT-BRM; for DC50: read-out: BRM HiBit Degradation IC50
T1 construct: expressed in transfected cells
Description: (§1) Procedure: A stable HeLa cell line expressing HiBiT-BRM was generated. On day 0, 5000 cells were seeded in 40 μL of media into each well of 384-well cell culture plates. On day 1, cells were treated with 120 nL DMSO or 120 nL of 3-fold serially DMSO-diluted compounds (10 points in duplicate with 30 μM as final top dose). Subsequently plates were incubated for 24 h in a standard tissue culture incubator and equilibrated at room temperature for 15 minutes. Nano-Glo HiBiT Lytic Detection System (Promega N3050) reagent was freshly prepared and 20 ul was added to each well. Upon addition of this LgBit-containing reagent, the HiBiT and LgBiT proteins associate to form the luminescent NanoBiT Iuciferase. The plates were shaken for 10 minutes at room temperature and the bioluminescence read using an EnVision plate reader (PerkinElmer).
(§2) The degradation % was calculated using the following formula: % degradation=100%-100%×(LumSample−LumLC)/(LumHC−LumLC). DMSO treated cells are employed as High Control (HC) and 2 μM of a known BRM/BRG1 degrader standard treated cells are employed as Low Control (LC).

[1] = target: T2, HiBit-BRG1 fusion protein (Homo sapiens, UniProt P51532); assay: HiBiT-BRG1 cell-based degradation assay (Nano-Glo HiBiT Lytic Detection, 24 h); details: stable HeLa cell line expressing HiBit-BRG1 and LgBit; for Dmax: read-out: BRG1 HiBit Degradation Maximum (%); for DC50: read-out: BRMG1 HiBit Degradation IC50
T2 construct: expressed in transfected cells
Description: as §1
For measurement of BRG1 degradation, a stable HeLa cell line expressing HiBit-BRG1 and LgBit was generated. The same protocol as above was then followed.
as §2

T2 sequence (P51532 whole entry, the tested form may be a part): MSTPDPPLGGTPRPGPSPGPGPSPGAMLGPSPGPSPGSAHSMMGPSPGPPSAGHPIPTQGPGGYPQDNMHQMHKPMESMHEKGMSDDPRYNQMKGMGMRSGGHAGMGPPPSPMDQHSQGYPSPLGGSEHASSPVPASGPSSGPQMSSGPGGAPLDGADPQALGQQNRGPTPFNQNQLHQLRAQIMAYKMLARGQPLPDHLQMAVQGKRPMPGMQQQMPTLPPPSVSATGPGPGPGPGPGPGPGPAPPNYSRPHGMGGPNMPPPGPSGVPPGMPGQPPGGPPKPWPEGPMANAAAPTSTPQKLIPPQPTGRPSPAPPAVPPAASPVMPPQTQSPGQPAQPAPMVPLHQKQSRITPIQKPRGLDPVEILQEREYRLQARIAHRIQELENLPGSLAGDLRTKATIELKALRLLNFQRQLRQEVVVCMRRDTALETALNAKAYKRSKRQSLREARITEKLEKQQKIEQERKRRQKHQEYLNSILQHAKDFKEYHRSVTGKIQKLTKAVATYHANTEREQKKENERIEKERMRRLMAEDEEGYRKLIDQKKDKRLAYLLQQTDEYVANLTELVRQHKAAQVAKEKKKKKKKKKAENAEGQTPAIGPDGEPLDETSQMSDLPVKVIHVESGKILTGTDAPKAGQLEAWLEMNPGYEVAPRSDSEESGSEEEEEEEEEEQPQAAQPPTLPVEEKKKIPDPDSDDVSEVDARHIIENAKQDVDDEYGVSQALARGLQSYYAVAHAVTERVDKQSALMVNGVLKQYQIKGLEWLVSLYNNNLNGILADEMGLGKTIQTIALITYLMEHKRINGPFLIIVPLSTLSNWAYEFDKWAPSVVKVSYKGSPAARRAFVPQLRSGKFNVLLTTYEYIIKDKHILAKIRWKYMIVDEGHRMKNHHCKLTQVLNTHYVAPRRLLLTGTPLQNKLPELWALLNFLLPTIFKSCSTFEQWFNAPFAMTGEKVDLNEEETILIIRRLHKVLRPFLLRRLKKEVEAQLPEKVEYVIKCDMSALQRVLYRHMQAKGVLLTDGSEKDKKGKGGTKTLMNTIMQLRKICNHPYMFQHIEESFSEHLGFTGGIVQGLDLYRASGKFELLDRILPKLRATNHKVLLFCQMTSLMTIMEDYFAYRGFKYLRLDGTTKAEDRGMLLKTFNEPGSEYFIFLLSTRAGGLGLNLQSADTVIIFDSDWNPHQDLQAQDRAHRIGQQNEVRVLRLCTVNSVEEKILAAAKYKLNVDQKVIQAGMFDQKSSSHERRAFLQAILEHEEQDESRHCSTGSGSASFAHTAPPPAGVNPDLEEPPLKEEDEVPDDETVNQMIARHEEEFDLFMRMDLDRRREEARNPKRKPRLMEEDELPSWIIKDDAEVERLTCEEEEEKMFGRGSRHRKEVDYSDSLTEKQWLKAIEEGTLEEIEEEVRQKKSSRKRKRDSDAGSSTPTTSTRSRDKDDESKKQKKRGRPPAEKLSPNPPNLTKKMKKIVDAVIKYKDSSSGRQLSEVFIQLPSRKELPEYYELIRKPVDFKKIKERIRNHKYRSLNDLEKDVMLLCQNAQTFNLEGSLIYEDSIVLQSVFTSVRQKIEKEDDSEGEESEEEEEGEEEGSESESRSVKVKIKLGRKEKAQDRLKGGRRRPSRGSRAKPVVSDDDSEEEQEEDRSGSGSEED
T1 sequence (P51531 whole entry, the tested form may be a part): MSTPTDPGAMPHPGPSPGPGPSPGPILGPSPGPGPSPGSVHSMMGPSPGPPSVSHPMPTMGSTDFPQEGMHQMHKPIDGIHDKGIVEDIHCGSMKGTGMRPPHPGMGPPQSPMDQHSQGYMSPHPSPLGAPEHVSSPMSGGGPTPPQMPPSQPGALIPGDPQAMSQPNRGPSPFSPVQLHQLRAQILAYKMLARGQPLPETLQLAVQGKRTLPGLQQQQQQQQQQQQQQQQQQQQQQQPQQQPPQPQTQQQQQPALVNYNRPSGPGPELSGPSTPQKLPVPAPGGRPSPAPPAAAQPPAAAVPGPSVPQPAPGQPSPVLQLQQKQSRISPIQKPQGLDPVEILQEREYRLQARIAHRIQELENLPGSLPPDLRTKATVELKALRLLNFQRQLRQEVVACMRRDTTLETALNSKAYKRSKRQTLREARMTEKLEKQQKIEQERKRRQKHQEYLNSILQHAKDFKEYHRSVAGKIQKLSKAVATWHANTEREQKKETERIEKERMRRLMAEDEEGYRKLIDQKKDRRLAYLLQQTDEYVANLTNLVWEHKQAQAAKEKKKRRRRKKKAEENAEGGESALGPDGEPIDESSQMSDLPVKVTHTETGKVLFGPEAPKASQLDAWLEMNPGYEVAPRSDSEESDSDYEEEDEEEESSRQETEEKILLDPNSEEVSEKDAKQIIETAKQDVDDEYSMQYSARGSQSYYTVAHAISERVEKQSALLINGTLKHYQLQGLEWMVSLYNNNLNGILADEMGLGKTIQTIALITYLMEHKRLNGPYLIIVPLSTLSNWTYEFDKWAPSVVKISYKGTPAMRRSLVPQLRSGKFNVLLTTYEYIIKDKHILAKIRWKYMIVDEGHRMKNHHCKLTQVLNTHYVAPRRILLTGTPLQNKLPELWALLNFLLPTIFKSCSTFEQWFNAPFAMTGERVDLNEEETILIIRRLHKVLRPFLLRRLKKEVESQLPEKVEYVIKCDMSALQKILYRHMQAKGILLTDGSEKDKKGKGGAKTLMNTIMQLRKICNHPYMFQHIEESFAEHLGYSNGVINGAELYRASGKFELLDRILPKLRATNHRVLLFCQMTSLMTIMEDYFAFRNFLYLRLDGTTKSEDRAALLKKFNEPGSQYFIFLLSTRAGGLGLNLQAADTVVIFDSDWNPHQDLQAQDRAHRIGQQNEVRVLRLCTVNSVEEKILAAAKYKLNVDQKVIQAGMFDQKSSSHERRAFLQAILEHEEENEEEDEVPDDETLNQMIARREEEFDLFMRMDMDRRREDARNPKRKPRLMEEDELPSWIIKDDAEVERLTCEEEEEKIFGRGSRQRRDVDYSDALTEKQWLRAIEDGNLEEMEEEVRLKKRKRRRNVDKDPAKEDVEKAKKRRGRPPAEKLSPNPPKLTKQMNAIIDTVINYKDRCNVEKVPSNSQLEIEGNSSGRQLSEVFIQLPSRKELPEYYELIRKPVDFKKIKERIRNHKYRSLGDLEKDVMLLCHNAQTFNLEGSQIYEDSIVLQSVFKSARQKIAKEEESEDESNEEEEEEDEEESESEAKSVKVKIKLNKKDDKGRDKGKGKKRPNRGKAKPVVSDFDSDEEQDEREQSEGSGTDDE

| SMILES | BRM HiBit Degradation Maximum (%) (HiBit-BRM fusion protein) | DC50 (HiBit-BRM fusion protein) [nM] | Dmax [1] [%] | DC50 [1] [nM] |
| --- | --- | --- | --- | --- |
| Cc1ncsc1-c1ccc([C@H](C)NC(=O)[C@@H]2C[C@@H](O)CN2C(=O)[C@@H](c2cc(-c3ccc(N4CC(c5sc6nnc(-c7ccccc7O)cc6c5C)C4)nn3)no2)C(C)C)cc1 [Compound 50, (2S,4R)-4-hydroxy-1-((R)-2-(3-(6-(3-(3-(2-hydroxyphenyl)-5-methylthieno[2,3-c]pyridazin-6-yl)azetidin-1-yl)pyridazin-3-yl)isoxazol-5-yl)-3-methylbutanoyl)-N-((S)-1-(4-(4-methylthiazol-5-yl)phenyl)ethyl)pyrrolidine-2-carboxamide] | A (“A” indicates maximum degradation ≥75%) | > 10 | < 50 | > 1000 |
| Cc1ncsc1-c1ccc([C@H](C)NC(=O)[C@@H]2C[C@@H](O)CN2C(=O)[C@@H](c2cc(-c3ccc(N4CCC(c5sc6nnc(-c7ccccc7O)cc6c5C)CC4)nc3)no2)C(C)C)cc1 [Compound 59, (2S,4R)-4-hydroxy-1-((R)-2-(3-(6-(4-(3-(2-hydroxyphenyl)-5-methylthieno[2,3-c]pyridazin-6-yl)piperidin-1-yl)pyridin-3-yl)isoxazol-5-yl)-3-methylbutanoyl)-N-((S)-1-(4-(4-methylthiazol-5-yl)phenyl)ethyl)pyrrolidine-2-carboxamide] | A (“A” indicates maximum degradation ≥75%) | < 10 | < 50 | > 1000 |
| Cc1nc(N2CCC(c3sc4nnc(-c5ccccc5O)cc4c3C)CC2)ncc1-c1cc([C@H](C(=O)N2C[C@H](O)C[C@H]2C(=O)N[C@@H](C)c2ccc(-c3scnc3C)cc2)C(C)C)on1 [Compound 93, (2S,4R)-4-hydroxy-1-((R)-2-(3-(2-(4-(3-(2-hydroxyphenyl)-5-methylthieno[2,3-c]pyridazin-6-yl)piperidin-1-yl)-4-methylpyrimidin-5-yl)isoxazol-5-yl)-3-methylbutanoyl)-N-((S)-1-(4-(4-methylthiazol-5-yl)phenyl)ethyl)pyrrolidine-2-carboxamide] | A (“A” indicates maximum degradation ≥75%) | < 10 | > 50 |  |
| Cc1ncsc1-c1ccc([C@H](C)NC(=O)[C@@H]2C[C@@H](O)CN2C(=O)[C@@H](c2cc(-c3cnc(N4CCN(c5cc6nnc(-c7ccccc7O)cc6s5)CC4)nc3)no2)C(C)C)cc1 [Compound 9, (2S,4R)-4-hydroxy-1-{2-[3-(2-{4-[3-(2-hydroxyphenyl)thieno[3,2-c]pyridazin-6-yl]piperazin-1-yl}pyrimidin-5-yl)-1,2-oxazol-5-yl]-3-methylbutanoyl}-N-[(1S)-1-[4-(4-methyl-1,3-thiazol-5-yl)phenyl]ethyl]pyrrolidine-2-carboxamide] | A (“A” indicates maximum degradation ≥75%) | < 10 | > 75 | > 10 |
| Cc1ncsc1-c1ccc([C@H](C)NC(=O)[C@@H]2C[C@@H](O)CN2C(=O)[C@@H](c2cc(N3CCC4(CCC(c5sc6nnc(-c7ccccc7O)cc6c5C)CC4)CC3)no2)C(C)C)cc1 [Compound 85, (2S,4R)-4-hydroxy-1-((R)-2-(3-(9-(3-(2-hydroxyphenyl)-5-methylthieno[2,3-c]pyridazin-6-yl)-3-azaspiro[5.5]undecan-3-yl)isoxazol-5-yl)-3-methylbutanoyl)-N-((S)-1-(4-(4-methylthiazol-5-yl)phenyl)ethyl)pyrrolidine-2-carboxamide] | A (“A” indicates maximum degradation ≥75%) | > 10 | < 50 |  |
| Cc1ncsc1-c1ccc([C@H](C)NC(=O)[C@@H]2C[C@@H](O)CN2C(=O)[C@@H](c2cc(-c3cnc(N4C[C@H]5C[C@@H]4C[C@H]5c4cc5cc(-c6ccccc6O)nnc5s4)nc3)no2)C(C)C)cc1 [Compound 13, (2S,4R)-4-hydroxy-1-((R)-2-(3-(2-((1R,4S,5R)-5-(3-(2-hydroxyphenyl)thieno[2,3-c]pyridazin-6-yl)-2-azabicyclo[2.2.1]heptan-2-yl)pyrimidin-5-yl)isoxazol-5-yl)-3-methylbutanoyl)-N-((S)-1-(4-(4-methylthiazol-5-yl)phenyl)ethyl)pyrrolidine-2-carboxamide] | C (“C” indicates maximum degradation <50%) | > 1000 | < 50 | > 1000 |
| Cc1ncsc1-c1ccc([C@H](C)NC(=O)[C@@H]2C[C@@H](O)CN2C(=O)[C@@H](c2cc(N3CC4(CC(c5sc6nnc(-c7ccccc7O)cc6c5C5CC5)C4)C3)no2)C(C)C)cc1 [Compound 87, (2S,4R)-1-[(2R)-2-(3-{6-[5-cyclopropyl-3-(2-hydroxyphenyl)thieno[2,3-c]pyridazin-6-yl]-2-azaspiro[3.3]heptan-2-yl}-1,2-oxazol-5-yl)-3-methylbutanoyl]-4-hydroxy-N-[(1S)-1-[4-(4-methyl-1,3-thiazol-5-yl)phenyl]ethyl]pyrrolidine-2-carboxamide] | A (“A” indicates maximum degradation ≥75%) | < 10 | < 50 |  |
| Cc1ncsc1-c1ccc([C@H](C)NC(=O)[C@@H]2C[C@@H](O)CN2C(=O)[C@@H](c2cc(N3CC4(CC(c5sc6nnc(-c7ccccc7O)cc6c5C)C4)C3)no2)C(C)C)cc1 [Compound 23, (2S,4R)-4-hydroxy-1-((R)-2-(3-(6-(3-(2-hydroxyphenyl)-5-methylthieno[2,3-c]pyridazin-6-yl)-2-azaspiro[3.3]heptan-2-yl)isoxazol-5-yl)-3-methylbutanoyl)-N-((S)-1-(4-(4-methylthiazol-5-yl)phenyl)ethyl)pyrrolidine-2-carboxamide] | A (“A” indicates maximum degradation ≥75%) | < 10 | < 50 | > 1000 |
| Cc1ncsc1-c1ccc([C@H](C)NC(=O)[C@@H]2C[C@@H](O)CN2C(=O)[C@@H](c2cc(N3C[C@@H]4[C@H](C3)[C@H]4c3sc4nnc(-c5ccccc5O)cc4c3C)no2)C(C)C)cc1 [Compound 16, (2S,4R)-4-hydroxy-1-((R)-2-(3-((1R,5S,6R)-6-(3-(2-hydroxyphenyl)-5-methylthieno[2,3-c]pyridazin-6-yl)-3-azabicyclo[3.1.0]hexan-3-yl)isoxazol-5-yl)-3-methylbutanoyl)-N-((S)-1-(4-(4-methylthiazol-5-yl)phenyl)ethyl)pyrrolidine-2-carboxamide] | A (“A” indicates maximum degradation ≥75%) | < 10 | > 50 | > 10 |
| Cc1ncsc1-c1ccc([C@H](C)NC(=O)[C@@H]2C[C@@H](O)CN2C(=O)[C@@H](c2cc(N3CC4(C3)CN(c3sc5nnc(-c6ccccc6O)cc5c3C3CC3)C4)no2)C(C)C)cc1 [Compound 71, (2S,4R)-1-((R)-2-(3-(6-(5-cyclopropyl-3-(2-hydroxyphenyl)thieno[2,3-c]pyridazin-6-yl)-2,6-diazaspiro[3.3]heptan-2-yl)isoxazol-5-yl)-3-methylbutanoyl)-4-hydroxy-N—((S)-1-(4-(4-methylthiazol-5-yl)phenyl)ethyl)pyrrolidine-2-carboxamide] | A (“A” indicates maximum degradation ≥75%) | < 10 | < 50 |  |
| Cc1ncsc1-c1ccc([C@H](C)NC(=O)[C@@H]2C[C@@H](O)CN2C(=O)[C@@H](c2cc(-c3cnc(NC45CC(c6sc7nnc(-c8ccccc8O)cc7c6C)(C4)C5)nc3)no2)C(C)C)cc1 [Compound 44, (2S,4R)-4-hydroxy-1-((R)-2-(3-(2-((3-(3-(2-hydroxyphenyl)-5-methylthieno[2,3-c]pyridazin-6-yl)bicyclo[1.1.1]pentan-1-yl)amino)pyrimidin-5-yl)isoxazol-5-yl)-3-methylbutanoyl)-N-((S)-1-(4-(4-methylthiazol-5-yl)phenyl)ethyl)pyrrolidine-2-carboxamide] | A (“A” indicates maximum degradation ≥75%) | < 10 | > 75 |  |
| Cc1ncsc1-c1ccc([C@H](C)NC(=O)[C@@H]2C[C@@H](O)CN2C(=O)[C@@H](c2cc(-c3ccnc(N4CC[C@H](c5sc6nnc(-c7ccccc7O)cc6c5C)C4)n3)no2)C(C)C)cc1 [Compound 8, (2S,4R)-4-hydroxy-1-((R)-2-(3-(2-((S)-3-(3-(2-hydroxyphenyl)-5-methylthieno[2,3-c]pyridazin-6-yl)pyrrolidin-1-yl)pyrimidin-4-yl)isoxazol-5-yl)-3-methylbutanoyl)-N-((S)-1-(4-(4-methylthiazol-5-yl)phenyl)ethyl)pyrrolidine-2-carboxamide] | A (“A” indicates maximum degradation ≥75%) | > 10 | < 50 | > 1000 |
| Cc1ncsc1-c1ccc([C@H](C)NC(=O)[C@@H]2C[C@@H](O)CN2C(=O)[C@@H](c2cc(N3CCN(c4ncc(-c5sc6nnc(-c7ccccc7O)cc6c5C)cn4)CC3)no2)C(C)C)cc1 (single isomer, unassigned) [Compound 31] | B (“B” indicates maximum degradation ≥50%) | > 10 | < 50 | > 1000 |
